Results on 16 compounds are retold here after ChEMBL document CHEMBL3804793, “Abietane-Type Diterpenoid Amides with Highly Potent and Selective Activity against Leishmania donovani and Trypanosoma cruzi” (J Nat Prod, 2016).

In general, pIC50 refers to −log10 of the IC50, conventionally taken in molar units. What is called inhibition is the share of the control response that was lost under treatment.

Data set [1] relates to Leishmania donovani. As to the kind of experiment: Antileishmanial activity against axenic amastigotes of Leishmania donovani MHOM/SD/1962/1S-Cl2d […] assessed as parasite growth inhibition after 24 hrs by AlamarBlue viability assay. The format is functional, organism-based.
The nature of data set [2]: Cytotoxicity against human THP1 cells after 48 hrs by AlamarBlue viability assay. The format is cell-based. The following applies: THP-1, 48 h.
For data set [3], the system named is Leishmania donovani. Kind of data set: Antileishmanial activity against axenic amastigotes of Leishmania donovani MHOM/SD/1962/1S-Cl2d infected in human THP1 cells assessed as parasite growth inhibition at 50 uM after 24 hrs by AlamarBlue viability assay. The format is functional. The following applies: read-out: GI. In general terms: The colour change of resazurin is a common sign of viable cells or microbes.

Data set [4] deals with Leishmania donovani. As to the kind of experiment: Antileishmanial activity against axenic amastigotes of Leishmania donovani MHOM/SD/1962/1S-Cl2d infected in human THP1 cells assessed as parasite growth inhibition at 15 uM after 24 hrs by AlamarBlue viability assay. Type of data set: functional. The following applies: read-out: GI.
Data set [5] is described as follows: Selectivity index, ratio of IC50 for human THP1 cells to IC50 for axenic amastigotes of Leishmania donovani MHOM/SD/1962/1S-Cl2d infected in human THP1 cells. Type of data set: toxicity, cell-based, THP-1. The following applies: read-out: Ratio IC50.
Data set [6] in a line: Selectivity index, ratio of IC50 for rat L6 cells to IC50 for Trypanosoma cruzi Tulahuen C2C4 amastigotes. Type of data set: toxicity, cell-based. The following applies: read-out: Ratio IC50.
The test system of a further data set is L6. Kind of data set: Cytotoxicity against rat L6 cells after 72 hrs by AlamarBlue dye based fluorimetric method. The following applies: L6, 72 h. Type of data set: cell-based.
The subject of data set [7] is Leishmania donovani. As to the kind of experiment: Antileishmanial activity against axenic amastigotes of Leishmania donovani MHOM/SD/1962/1S-Cl2d infected in human macrophages at 5 uM. Type of data set: functional.
In data set [8] the test system is Trypanosoma cruzi. Kind of data set: Antitrypanosomal activity against trypomastigote form of Trypanosoma cruzi Tulahuen C2C4 expressing LacZ gene infected in rat L6 cells after 96 hrs by photometric method. The following applies: Tulahuen C2C4, L6, 96 h. The format is functional, organism-based.
The subject of data set [9] is Trypanosoma cruzi. As to the kind of experiment: Antitrypanosomal activity against intracellular form of Trypanosoma cruzi. Type of data set: functional, organism-based.
A short description of data set [10]: Selectivity index, ratio of IC50 for African green monkey Vero cells to IC50 for metacyclic form of Trypanosoma cruzi SN3. Type of data set: toxicity, cell-based. The following applies: read-out: Ratio IC50.
In data set [11] the test system is Trypanosoma cruzi. As to the kind of experiment: Antitrypanosomal activity against metacyclic form of Trypanosoma cruzi SN3 infected in African green monkey Vero cells after 72 hrs by Giemsa staining. The format is functional, organism-based.
Data set [12] relates to Leishmania donovani. Kind of data set: Antileishmanial activity against amastigotes of Leishmania donovani MHOM/SD/1962/1S-Cl2d infected in human THP1 cells assessed as parasite growth inhibition at 1 uM after 24 hrs by AlamarBlue viability assay. The following applies: THP-1, 24 h.
Data set [13] has as its system Leishmania donovani. As to the kind of experiment: Selectivity for axenic amastigotes of Leishmania donovani MHOM/SD/1962/1S-Cl2d infected in human macrophages over axenic amastigotes of Leishmania donovani MHOM/SD/1962/1S-Cl2d infected in human THP1 cells. Type of data set: functional, THP-1.
Data set [14] relates to Trypanosoma cruzi. Kind of data set: Potency index, ratio of IC50 for benznidazole to IC50 for test compound against trypomastigote form of Trypanosoma cruzi Tulahuen C2C4 expressing LacZ gene infected in rat L6 cells. The format is functional.

pIC50: −log10 of the molar value. Bounds are passed on as bounds.

`CC(C)c1ccc2c(c1)CC[C@H]1[C@](C)(CNC(=O)c3ccc[nH]3)CCC[C@]21C`: the pIC50 with Leishmania donovani [1] is 5.49; in data set [2] it was 4.48. The inhibition of growth at 50 µM in the data set on Leishmania donovani [3] came to 99.1%. In the data set with Leishmania donovani [4], the inhibition of growth at 15 µM amounted to 90.6%. In addition, the selectivity ratio in [5] stood at 10.
As for `CC(C)c1ccc2c(c1)CC[C@H]1[C@](C)(CNC(=O)/C=C/c3ccccc3)CCC[C@]21C`, the inhibition of growth at 50 µM with Leishmania donovani [3] was determined as 42.4%.
Consider `CC(C)c1ccc2c(c1)CC[C@H]1[C@](C)(CNC(=O)c3ccccc3)CCC[C@]21C`, for which, in the data set with Leishmania donovani [3], the inhibition of growth at 50 µM is 95.7%. For the same compound, the inhibition of growth at 15 µM with Leishmania donovani [4] amounted to 56.3%.
Consider `CC(C)c1ccc2c(c1)CC[C@H]1[C@](C)(CNC(=O)/C=C\C(=O)O)CCC[C@]21C`, for which the selectivity ratio was 4 in data set [6] and 76 in [5]. For the same compound, the pIC50 in the data set on Leishmania donovani [1] was 5.72; in [2] it was 3.84; in the data set on L6, 4.47; in the data set with Trypanosoma cruzi [8], 5.02. Further, the inhibition of growth at 50 µM in the data set with Leishmania donovani [3] was 98.8%. Further, in the data set on Leishmania donovani [4], the inhibition of growth at 15 µM is 90.7%. The inhibition at 5 µM with Leishmania donovani [7] was found to be 34.7%.
`CCCC(=O)NC[C@]1(C)CCC[C@]2(C)c3ccc(C(C)C)cc3CC[C@@H]12`: the pIC50 was 5.29 in the data set on Leishmania donovani [1] and 4.25 in data set [2]. Also, the inhibition of growth at 50 µM in the data set with Leishmania donovani [3] turned out to be 96.6%. The inhibition of growth at 15 µM with Leishmania donovani [4] stood at 73.2%. Moreover, in data set [5], the selectivity ratio was found to be 11.
Turning to `CC(=O)NC[C@]1(C)CCC[C@]2(C)c3ccc(C(C)C)cc3CC[C@@H]12`, the selectivity ratio in data set [6] worked out at 6; in [5], 14. For the same compound, the pIC50 in the data set with Leishmania donovani [1] is 5.62; in [2], 4.48; with L6, 4.61; in the data set on Trypanosoma cruzi [8] it was 5.43. The inhibition of growth at 50 µM with Leishmania donovani [3] turned out to be 98.5%. Moreover, the inhibition of growth at 15 µM in the data set with Leishmania donovani [4] was determined as 96%.
On to `CC(C)c1ccc2c(c1)CC[C@H]1[C@](C)(CNC(=O)c3nccnc3C(=O)O)CCC[C@]21C`, for which the inhibition of growth at 50 µM with Leishmania donovani [3] amounted to 9.4%.
Regarding `CC(C)c1cc2c(c(O)c1O)[C@@]1(C)CCCC(C)(C)C1=C(O)C2=O` [14-DEOXYCOLEON U], the pIC50 with Trypanosoma cruzi [9] is 4.59.
`COC(=O)[C@]1(C)CCC[C@]2(C)C3=C(CC[C@@H]12)C(=O)C(C(C)C)=CC3=O`: the selectivity ratio in data set [10] amounted to 45. In the data set with Trypanosoma cruzi [11], the pIC50 is 4.76.
For `CC(C)c1ccc2c(c1)CC[C@H]1[C@](C)(CNC(=O)/C=C/c3ccc([N+](=O)[O-])cc3)CCC[C@]21C`, the inhibition of growth at 50 µM in the data set with Leishmania donovani [3] amounted to 42.7%.
For `C#CC(=O)NC[C@]1(C)CCC[C@]2(C)c3ccc(C(C)C)cc3CC[C@@H]12`, the negative-log IC50 (pIC50) was 5.39 with Leishmania donovani [1] and more than 5.52 in [2]. In the data set with Leishmania donovani [3], the inhibition of growth at 50 µM was found to be 99.8%. For the same compound, the inhibition of growth at 15 µM in the data set on Leishmania donovani [4] was 98.1%. For the same compound, in data set [5], the selectivity ratio is less than 1.
As to `CC(C)c1ccc2c(c1)CC[C@H]1[C@](C)(CNC(=O)c3ccccc3C(=O)O)CCC[C@]21C`, the inhibition of growth at 50 µM with Leishmania donovani [3] amounted to 98.5%. Besides, the inhibition of growth at 15 µM in the data set with Leishmania donovani [4] stood at 34.9%.
In the case of `C[C@@H]1[C@H](O)[C@@H](C)/C=C/C=C/C=C/C=C/C=C/C=C/C=C/[C@H](O[C@@H]2O[C@H](C)[C@@H](O)[C@H](N)[C@@H]2O)C[C@@H]2O[C@](O)(C[C@@H](O)C[C@@H](O)[C@H](O)CC[C@@H](O)C[C@@H](O)CC(=O)O[C@H]1C)C[C@H](O)[C@H]2C(=O)O` [AMPHOTERICIN B], the inhibition at 1 µM in the data set on Leishmania donovani [12] was more than 90%.
On to `CC(C)c1ccc2c(c1)CC[C@H]1[C@](C)(CN)CCC[C@]21C`, for which the selectivity ratio in data set [6] was 1. Further, the inhibition of growth at 50 µM in the data set with Leishmania donovani [3] is 68.7%. Besides, the pIC50 in the data set with L6 is 5.19; in the data set on Trypanosoma cruzi [8] it was 5.13.
On to `C=CC(=O)NC[C@]1(C)CCC[C@]2(C)c3ccc(C(C)C)cc3CC[C@@H]12`, for which the values for the selectivity ratio (in data set [6]; in the data set with Leishmania donovani [13]; in [5]) were 58, 6 and 63, respectively. The pIC50 in the data set on Leishmania donovani [1] is 6.43; in data set [2], 4.63; in the data set on L6, 4.44; with Trypanosoma cruzi [8], 6.22. In the data set with Leishmania donovani [3], the inhibition of growth at 50 µM was 99.8%. In the data set with Leishmania donovani [4], the inhibition of growth at 15 µM was 99.6%. Further, in the data set with Leishmania donovani [7], the inhibition at 5 µM amounted to 94.7%. Also, the “Ratio IC50” value in the data set on Trypanosoma cruzi [14] was 3.5.
`CC(C)c1ccc2c(c1)CC[C@H]1[C@](C)(CNC(=O)CCC(=O)O)CCC[C@]21C`: the inhibition of growth at 50 µM in the data set on Leishmania donovani [3] was 98.1%. In the data set on Leishmania donovani [4], the inhibition of growth at 15 µM amounted to 55%.
